Tests used:
BRN2 [1] = assay: Chromatin immunoprecipitation, BRN2 at MITF-M promoter; format: cell-based, human; details: G-361 cells, 200 μM I3C, 48 hours
Procedure: […] Proteins were crosslinked to DNA by the addition of formaldehyde at 2.5% of the final concentration for 5 minutes at room temperature to cultured cells. Fixation was quenched with glycine for a final concentration of 125 mmol/1 for 5 minutes. Harvested cells were sonicated and the chromatin was immunoprecipitated overnight and 15 μl of mouse anti-Brn2 antibodies (Santa Cruz Biotechnology) was added to the cell lysates to immunoprecipitate the chromatin-bound Brn2 protein. A fragment of the MITF-M promoter (−170+120) containing the BRN2 binding site (−53 to −27) was amplified using the primers—MITF-M Forward: 5′-CGTCACTTAAAAAGGTACCTTTATATTTATG-3′ (SEQ ID NO:7) MITF-M Reverse: 5′-TGT TTTAGC TAGCACCAATCCAGTGAGAGACGG-3′ (SEQ ID NO:8) by cycling 36 times (95° C., 30 s/52° C. 30 s/72° C., 30 s) with a 72° C., 10 min extension. The PCR products were electrophoretically fractionated on a 1.5% agarose gel and visualized using a transilluminator.

phosphorylated MEK = assay: Western blot of phosphorylated MEK; format: cell-based, human; details: 200 μM I3C, 72 hour time course
Procedure: Western Blot analyses of samples electrophoretically fractionated on 12% acrylamide gels were carried out as previously described (Wagle et al., J. Clin. Oncol. 2011. 29(22):3085-3096; Nguyen et al., Chem. Biol. Interact. 2010. 186(3):255-266). […] The western blots employed the following primary antibodies: mouse anti-MITF-M (Thermo-scientific), mouse anti-HSP 90 (BD Biosciences), mouse anti-CDK2, rabbit anti-CDK4, rabbit anti-CDK-6, mouse anti-rabbit BRAF, goat anti-LEF-1, rabbit anti-AXIN, mouse anti-BCL2, (Santa Cruz), rabbit anti-P21, mouse anti-Cyclin D1, rabbit anti-MEK-p, rabbit anti-MEK1/2, rabbit anti-GSK3β rabbit anti-LRP6, rabbit anti-LRP6-phospho (Cell signaling), mouse anti-β-catenin (Invitrogen).

MITF-M = assay: Immunofluorescence of tumor xenograft sections for MITF-M; format: in vivo, human; details: I3C 200 mg/kg, terminal sacrifice, relative to vehicle
Procedure: Approximately 1 million G361 melanoma cells in a total volume of 0.1 ml of Matrigel were injected subcutaneously into each lateral flank of NIH III athymic nude mice. The resulting tumors were allowed to grow to a mean starting volume of 146±10 mm^3. The animals were then randomized into two groups; a vehicle control group that was treated with DMSO and an […] treated group that were injected daily with 200 mg/kg body weight of […]. The resulting tumor volumes were measured every other day for four weeks using calipers. The tumor volumes were calculated using the standard formula: […], and changes in tumor volumes were calculated using the formula: 100+{(Tf-Ti)/Ti×100}, where Tf is the final mean tumor volume and Ti is the initial mean tumor volume. At terminal sacrifice, tumor xenografts were harvested, and a portion of each tumor was fixed in 4% para-formaldehyde for 1 hour at room temperature, followed by a phosphate-buffered saline (PBS) wash and subsequently immersed in 3% sucrose overnight at 4° C. The resulting tissues were embedded in OCT and 10 μm thin sections were taken for immunofluorescence studies.

G361 cells = assay: Flow cytometry analysis of DNA content, G361; format: cell-based, human; details: maximal dose of 200 μM I3C
Procedure: (§1) Melanoma cells were treated with the indicated concentrations of 1-benzyl […] in triplicates every 24 hours and harvested at the end of 24, 48 or 72 hours for cell cycle analysis. The DNA content of propidium iodide stained nuclei from harvested cells were determined by flow cytometry. Briefly, cells were hypotonically lysed in […] of DNA staining solution (0.5 mg/mL propidium iodide, 0.1% sodium citrate, and 0.05% Triton-X 100). Emitted fluorescence from the nuclear of wavelengths more than 585 nm was measured with a Coulter Elite instrument with laser output adjusted to deliver 15 mW at 488 nm. Ten thousand nuclei were analyzed from each sample at a rate of 300-500 nuclei/second. The percentage of cells within the G1, S, and G2/M phases of the cell cycle were determined by analysis with the Multicycle computer program provided by Phoenix Flow Systems in the Cancer Research Laboratory Microchemical Facility of the University of California, Berkeley.

wild type BRAF = target: T1, wild type BRAF (Homo sapiens, UniProt P15056); assay: In vitro BRAF kinase assay, in-vitro treated wild type BRAF from SK-MEL-2 cells; format: biochemical; details: pre-incubated 2 hours; 200 μM or 400 μM I3C, 10 μM Vemurafenib
T1 construct: Wild type BRAF was immunoprecipitated from SK-MEL-2 melanoma cells; endogenous in cells; host or cells: SK-MEL-2 human melanoma cells (ATCC)
Procedure: BRAF was pulled down from the cell lysates using anti-BRAF antibodies bound to protein G-coupled Sepharose beads, while IgG was used as a negative control. Post-immunoprecipitation supernatants were probed with anti BRAF antibody by western blots to determine pull-down efficiency. […] The reactions were terminated by adding 4× sodium dodecyl sulfate (SDS) sample buffer and boiling the mixture at 100° C. for 5 min. The samples were then electrophoresed, immunoblotted and probed for relative protein levels of phosphorylated MEK and total MEK to assess the kinase activity of the immunoprecipitated BRAF.

BRN2 [2] = assay: Immunofluorescence of BRN2 localization; format: cell-based, human; details: G-361 cells, 200 μM I3C, 48 hours
DM738 cells = assay: Flow cytometry analysis of DNA content, DM738; format: cell-based, human; details: maximal dose of 200 μM I3C
Procedure: as §1

SK-MEL-2 cells = assay: Flow cytometry analysis of DNA content, SK-MEL-2; format: cell-based, human; details: all tested concentrations of I3C
Procedure: as §1

[3] = tested on: 5 different melanoma cells lines; assay: CCK-8 proliferation assay, 5 melanoma cell lines with distinct mutation profiles; format: cell-based, human; details: 20 μM 1-benzyl I3C, 200 μM I3C, 48 hours
Procedure: The same treatment regime was repeated on multiple melanoma cell lines with 20 μM 1-benzyl I3C and 200 μM I3C for 48 hours to compare the relative sensitivities of the different cell lines with distinct mutation profiles to 1-benzyl I3C and I3C. Cells were treated with 20 μM 1-benzyl I3C every 24 hours for 72 hours and harvested at 24, 48 and 72 hours for western blot and flow cytometric analysis. Cells were treated with 20 μM LiCl or 10 μM BIO for 48 hours before harvesting them for western blots.
Subsequently inhibition of proliferation was assessed using Cell counting Kit-8 (Dojindo) as per the protocol in the user's manual. Briefly, 50 μl of the CCK-8 solution was added to each well along with 450 μl media and incubated for 2-3 hours. The absorbance was read at 450 nm and % inhibition was calculated for each condition standardizing DMSO to zero using the formula: [(100−Value of treatment/Value of DMSO treated control)×100]

normal melanocytes = assay: Flow cytometry analysis of DNA content, normal melanocytes; format: cell-based; details: varying doses of 1-benzyl I3C, 48 hours

T1 sequence (P15056 whole entry): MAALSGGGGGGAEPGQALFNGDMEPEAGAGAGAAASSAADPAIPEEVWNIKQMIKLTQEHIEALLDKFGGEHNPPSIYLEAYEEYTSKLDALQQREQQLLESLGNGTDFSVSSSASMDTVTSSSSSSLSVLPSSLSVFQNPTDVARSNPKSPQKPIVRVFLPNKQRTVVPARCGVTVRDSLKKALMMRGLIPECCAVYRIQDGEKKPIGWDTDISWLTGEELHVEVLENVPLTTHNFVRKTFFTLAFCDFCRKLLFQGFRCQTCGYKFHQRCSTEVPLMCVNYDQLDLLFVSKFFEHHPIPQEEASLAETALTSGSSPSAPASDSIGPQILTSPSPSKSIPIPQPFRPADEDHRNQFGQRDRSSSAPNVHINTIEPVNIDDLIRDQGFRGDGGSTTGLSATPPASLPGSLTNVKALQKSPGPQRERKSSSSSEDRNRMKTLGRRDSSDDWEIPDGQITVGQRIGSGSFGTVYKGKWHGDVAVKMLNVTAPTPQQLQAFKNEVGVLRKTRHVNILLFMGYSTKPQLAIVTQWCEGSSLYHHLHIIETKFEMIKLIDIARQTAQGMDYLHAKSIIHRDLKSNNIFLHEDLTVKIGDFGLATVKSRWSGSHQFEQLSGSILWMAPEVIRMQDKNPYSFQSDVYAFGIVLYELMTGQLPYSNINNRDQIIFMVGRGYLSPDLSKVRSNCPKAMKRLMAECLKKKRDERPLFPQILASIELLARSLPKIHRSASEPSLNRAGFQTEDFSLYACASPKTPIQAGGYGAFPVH

For `OCc1c[nH]c2ccccc12` [I3C, indole-3-carbinol], the “endogenous BRN2 binding to the MITF-M promoter” value (BRN2 [1]) was “significantly down regulated endogenous BRN-2 interactions with this promoter”, the “phosphorylated MEK levels” value (phosphorylated MEK; G-361 and DM738 cells) was “strongly down regulated” and the “phosphorylated MEK levels” value (phosphorylated MEK; SK-MEL-2 cells) was “no effect”. For the same compound, the “MITF-M protein in tumor xenograft sections” value (MITF-M) was “strong down-regulation of MITF-M protein”, the “G1 cell cycle arrest” value (G361 cells) was “significant G1 cell cycle arrest” and the “wild type BRAF enzymatic activity, direct in vitro incubation” value (wild type BRAF) was “no effect”. The “nuclear localization of BRN2” value (BRN2 [2]) was “disrupted the nuclear localization of Brn2”, the “G1 cell cycle arrest” value (DM738 cells) was “significant G1 cell cycle arrest” and the “G1 cell cycle arrest” value (SK-MEL-2 cells) was “remained in a rapidly proliferating state”.
With `OCc1cn(Cc2ccccc2)c2ccccc12` [1-benzyl I3C, 1-benzyl indole-3-carbinol] the “range of sensitivity across mutation profiles” value [3] was “much wider range of sensitivity than I3C and Vemurafenib” and the “G1 cell cycle arrest” value (normal melanocytes) was “no comparable effect on normal melanocytes”.
